Assay results published in patent US12668594B2, “TYK2 inhibitors and uses thereof” (Sudo Biosciences Limited, priority 2020, dated 2026).

Tests used:
TYK2 [1] = target: T1, TYK2 (Homo sapiens, UniProt P29597); assay: HEK-Blue IFNα/β reporter assay (SEAP) for TYK2 pseudokinase inhibition; type: cell-based; settings: HEK-Blue IFNα/β cells, 1 ng/mL human recombinant IFNα
Description: (§1) HEK-Blue™ IL-23 and IFNα/β cells with a stably-integrated cytokine receptor and STAT3 or STAT1 express STAT-inducible secreted embryonic alkaline phosphatase (SEAP) reporter gene upon cytokine stimulation. These cells are plated in DMVEM (Gibco) containing 10% heat-inactivated FBS (Gibco) and 100 U/mL PenStrep (Gibco) at 37° C. under […] conditions for 20-22 hours. The cells are then pretreated with serially diluted test compounds for 60 min prior to stimulation with either 10 ng/mL human recombinant IL-23 (Miltenyl Biotech) or 1 ng/mL human recombinant IFNα (InvivoGen) for 22-24 hours for IL-23 or 16-18 h for IFNα. SEAP induction is measured using the QUANTI Blue™ Solution (InvivoGen) according to the manufacturer's instructions. Inhibition data are calculated by comparison to no inhibitor control wells for 000 inhibition and non-stimulated control wells for 10000 inhibition. Dose response curves are generated to determine the concentration required to inhibit 5000 of cellular response (IC50) as derived by non-linear regression analysis.

TYK2 [2] = target: T1, TYK2; assay: HEK-Blue IL-23 reporter assay (SEAP) for TYK2 pseudokinase inhibition; type: cell-based; set-up: HEK-Blue™ IL-23 and IFNα/β cells with a stably-integrated cytokine receptor and STAT3 or STAT1; host or cells: HEK-Blue IL-23 / HEK-Blue IFNα/β cells (HEK293 background); settings: HEK-Blue IL-23 cells, 10 ng/mL human recombinant IL-23, SEAP reporter; read-out: IL23 IC50
Description: as §1

T1 sequence (P29597 whole entry): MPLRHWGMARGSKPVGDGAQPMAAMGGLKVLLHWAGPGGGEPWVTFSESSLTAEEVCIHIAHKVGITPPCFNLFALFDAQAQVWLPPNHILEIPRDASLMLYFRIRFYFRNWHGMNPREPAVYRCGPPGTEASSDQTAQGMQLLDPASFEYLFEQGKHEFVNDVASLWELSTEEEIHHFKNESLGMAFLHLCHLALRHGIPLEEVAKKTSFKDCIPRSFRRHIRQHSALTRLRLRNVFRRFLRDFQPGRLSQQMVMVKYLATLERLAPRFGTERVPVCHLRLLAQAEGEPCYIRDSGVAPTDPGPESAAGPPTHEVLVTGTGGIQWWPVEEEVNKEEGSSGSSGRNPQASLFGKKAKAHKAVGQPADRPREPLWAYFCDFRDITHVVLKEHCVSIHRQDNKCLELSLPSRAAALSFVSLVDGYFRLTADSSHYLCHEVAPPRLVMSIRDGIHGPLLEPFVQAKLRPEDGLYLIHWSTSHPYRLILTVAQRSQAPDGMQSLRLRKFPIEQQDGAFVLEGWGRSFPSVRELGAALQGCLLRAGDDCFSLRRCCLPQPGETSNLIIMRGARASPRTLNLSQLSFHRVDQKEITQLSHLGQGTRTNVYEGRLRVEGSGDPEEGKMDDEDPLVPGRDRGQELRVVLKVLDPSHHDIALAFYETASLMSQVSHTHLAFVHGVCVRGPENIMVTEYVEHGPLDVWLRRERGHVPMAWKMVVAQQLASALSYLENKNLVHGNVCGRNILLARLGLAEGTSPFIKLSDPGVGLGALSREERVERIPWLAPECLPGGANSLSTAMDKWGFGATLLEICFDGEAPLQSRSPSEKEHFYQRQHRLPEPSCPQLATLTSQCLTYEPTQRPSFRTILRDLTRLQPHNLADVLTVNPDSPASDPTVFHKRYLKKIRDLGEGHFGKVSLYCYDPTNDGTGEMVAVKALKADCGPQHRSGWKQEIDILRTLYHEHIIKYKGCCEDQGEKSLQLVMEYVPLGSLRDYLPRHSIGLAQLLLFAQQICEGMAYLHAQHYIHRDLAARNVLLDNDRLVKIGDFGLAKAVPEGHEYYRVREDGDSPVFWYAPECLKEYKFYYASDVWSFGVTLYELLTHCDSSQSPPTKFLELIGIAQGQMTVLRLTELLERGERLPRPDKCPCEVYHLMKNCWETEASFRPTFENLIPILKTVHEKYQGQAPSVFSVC

Compound	IC50 (TYK2 [1]) [µM]	IC50 (TYK2 [2]) [µM]
CS(=O)(=O)c1ccc(-n2[nH]c(=O)c3cnc(Nc4ccc(F)cn4)cc32)cc1 [Compound I-62, 6-((5-fluoropyridin-2-yl)amino)-1-(4-(methylsulfonyl)phenyl)-1,2-dihydro-3H-pyrazolo[4,3-c]pyridin-3-one]	30 to 90	< 10
COc1cc(-n2[nH]c(=O)c3cnc(Nc4cc(C)nc(C)n4)cc32)ccc1Cl [Compound I-78, 1-(4-chloro-3-methoxyphenyl)-6-((2,6-dimethylpyrimidin-4-yl)amino)-1,2-dihydro-3H-pyrazolo[4,3-c]pyridin-3-one]	> 90	> 90
COc1cc(-n2[nH]c(=O)c3cnc(Nc4ccc(F)cn4)cc32)ccc1Cl [Compound I-79, 1-(4-chloro-3-methoxyphenyl)-6-((5-fluoropyridin-2-yl)amino)-1,2-dihydro-3H-pyrazolo[4,3-c]pyridin-3-one]	> 90	> 90
COc1cc(-n2[nH]c(=O)c3cnc(Nc4cc(C)nc(C)n4)cc32)ccc1C#N [Compound I-80, 4-(6-((2,6-dimethylpyrimidin-4-yl)amino)-3-oxo-2,3-dihydro-1H-pyrazolo[4,3-c]pyridin-1-yl)-2-methoxybenzonitrile]	> 90	< 10
COc1cc(-n2[nH]c(=O)c3cnc(Nc4ccc(F)cn4)cc32)ccc1C#N [Compound I-81, 4-(6-((5-fluoropyridin-2-yl)amino)-3-oxo-2,3-dihydro-1H-pyrazolo[4,3-c]pyridin-1-yl)-2-methoxybenzonitrile]	> 90	< 10
COc1cc(-n2[nH]c(=O)c3cnc(NC(=O)C4CC4)cc32)ccc1C#N [Compound I-82, N-(1-(4-cyano-3-methoxyphenyl)-3-oxo-2,3-dihydro-1H-pyrazolo[4,3-c]pyridin-6-yl)cyclopropanecarboxamide]	10 to 30	< 10
COc1cc(-n2[nH]c(=O)c3cnc(Nc4cc(C)nc(C)n4)cc32)ccn1 [Compound I-83, 6-((2,6-dimethylpyrimidin-4-yl)amino)-1-(2-methoxypyridin-4-yl)-1,2-dihydro-3H-pyrazolo[4,3-c]pyridin-3-one]	< 10	< 10
COc1cc(-n2[nH]c(=O)c3cnc(Nc4ccc(F)cn4)cc32)ccn1 [Compound I-84, 6-((5-fluoropyridin-2-yl)amino)-1-(2-methoxypyridin-4-yl)-1,2-dihydro-3H-pyrazolo[4,3-c]pyridin-3-one]	< 10	< 10
Cc1cc(Nc2cc3c(cn2)c(=O)[nH]n3-c2ccc(Cl)c(Cl)c2)nc(C)n1 [Compound I-85, 1-(3,4-dichlorophenyl)-6-((2,6-dimethylpyrimidin-4-yl)amino)-1,2-dihydro-3H-pyrazolo[4,3-c]pyridin-3-one]	> 90	> 90
O=c1[nH]n(-c2ccc(Cl)c(Cl)c2)c2cc(Nc3ccc(F)cn3)ncc12 [Compound I-86, 1-(3,4-dichlorophenyl)-6-((5-fluoropyridin-2-yl)amino)-1,2-dihydro-3H-pyrazolo[4,3-c]pyridin-3-one]	> 90	> 90
Cc1cc(Nc2cc3c(cn2)c(=O)[nH]n3-c2ccc(C#N)c(Cl)c2)nc(C)n1 [Compound I-87, 2-chloro-4-(6-((2,6-dimethylpyrimidin-4-yl)amino)-3-oxo-2,3-dihydro-1H-pyrazolo[4,3-c]pyridin-1-yl)benzonitrile]	> 90	< 10
N#Cc1ccc(-n2[nH]c(=O)c3cnc(NC(=O)C4CC4)cc32)cc1Cl [Compound I-89, N-(1-(3-chloro-4-cyanophenyl)-3-oxo-2,3-dihydro-1H-pyrazolo[4,3-c]pyridin-6-yl)cyclopropanecarboxamide]	< 10	< 10
Cc1cc(Nc2cc3c(cn2)c(=O)[nH]n3-c2ccc(C#N)c(F)c2)nc(C)n1 [Compound I-90, 4-(6-((2,6-dimethylpyrimidin-4-yl)amino)-3-oxo-2,3-dihydro-1H-pyrazolo[4,3-c]pyridin-1-yl)-2-fluorobenzonitrile]	< 10	< 10
Cc1cc(Nc2cc3c(cn2)c(=O)[nH]n3-c2ccc(C#N)c(C(F)(F)F)c2)nc(C)n1 [Compound I-91, 4-(6-((2,6-dimethylpyrimidin-4-yl)amino)-3-oxo-2,3-dihydro-1H-pyrazolo[4,3-c]pyridin-1-yl)-2-(trifluoromethyl)benzonitrile]	< 10	< 10
N#Cc1ccc(-n2[nH]c(=O)c3cnc(Nc4ccc(F)cn4)cc32)cc1C(F)(F)F [Compound I-92, 4-(6-((5-fluoropyridin-2-yl)amino)-3-oxo-2,3-dihydro-1H-pyrazolo[4,3-c]pyridin-1-yl)-2-(trifluoromethyl)benzonitrile]	< 10	< 10
N#Cc1ccc(-n2[nH]c(=O)c3cnc(NC(=O)C4CC4)cc32)cc1C(F)(F)F [Compound I-93, N-(1-(4-cyano-3-(trifluoromethyl)phenyl)-3-oxo-2,3-dihydro-1H-pyrazolo[4,3-c]pyridin-6-yl)cyclopropanecarboxamide]	< 10	< 10

More lines, now with the values ahead:

IC50 (TYK2 [1]) [µM]	IC50 (TYK2 [2]) [µM]	Compound
< 10	> 90	O=c1[nH]n(-c2cccc(F)c2)c2cc(Nc3ccc(F)cn3)ncc12 [Compound I-60, 1-(3-fluorophenyl)-6-((5-fluoropyridin-2-yl)amino)-1,2-dihydro-3H-pyrazolo[4,3-c]pyridin-3-one]
< 10	< 10	O=C(Nc1cc2c(cn1)c(=O)[nH]n2-c1cccc(F)c1)C1CC1 [Compound I-61, N-(1-(3-fluorophenyl)-3-oxo-2,3-dihydro-1H-pyrazolo[4,3-c]pyridin-6-yl)cyclopropanecarboxamide]
< 10	< 10	Cc1cc(Nc2cc3c(cn2)c(=O)[nH]n3-c2ccc(C#N)cc2)nc(C)n1 [Compound I-63, 4-(6-((2,6-dimethylpyrimidin-4-yl)amino)-3-oxo-2,3-dihydro-1H-pyrazolo[4,3-c]pyridin-1-yl)benzonitrile]
< 10	< 10	N#Cc1ccc(-n2[nH]c(=O)c3cnc(Nc4ccc(F)cn4)cc32)cc1 [Compound I-64, 4-(6-((5-fluoropyridin-2-yl)amino)-3-oxo-2,3-dihydro-1H-pyrazolo[4,3-c]pyridin-1-yl)benzonitrile]
< 10	< 10	Cc1cc(Nc2cc3c(cn2)c(=O)[nH]n3-c2ccc(C(F)(F)F)cc2)nc(C)n1 [Compound I-66, 6-((2,6-dimethylpyrimidin-4-yl)amino)-1-(4-(trifluoromethyl)phenyl)-1,2-dihydro-3H-pyrazolo[4,3-c]pyridin-3-one]
< 10	< 10	O=c1[nH]n(-c2ccc(C(F)(F)F)cc2)c2cc(Nc3ccc(F)cn3)ncc12 [Compound I-67, 6-((5-fluoropyridin-2-yl)amino)-1-(4-(trifluoromethyl)phenyl)-1,2-dihydro-3H-pyrazolo[4,3-c]pyridin-3-one]
< 10	< 10	O=C(Nc1cc2c(cn1)c(=O)[nH]n2-c1ccc(C(F)(F)F)cc1)C1CC1 [Compound I-68, N-(3-oxo-1-(4-(trifluoromethyl)phenyl)-2,3-dihydro-1H-pyrazolo[4,3-c]pyridin-6-yl)cyclopropanecarboxamide]
< 10	< 10	O=c1[nH]n(-c2ccc(OC(F)(F)F)cc2)c2cc(Nc3ccc(F)cn3)ncc12 [Compound I-70, 6-((5-fluoropyridin-2-yl)amino)-1-(4-(trifluoromethoxy)phenyl)-1,2-dihydro-3H-pyrazolo[4,3-c]pyridin-3-one]
< 10	< 10	O=C(Nc1cc2c(cn1)c(=O)[nH]n2-c1ccc(OC(F)(F)F)cc1)C1CC1 [Compound I-71, N-(3-oxo-1-(4-(trifluoromethoxy)phenyl)-2,3-dihydro-1H-pyrazolo[4,3-c]pyridin-6-yl)cyclopropanecarboxamide]
< 10	< 10	COC(=O)c1ccc(-n2[nH]c(=O)c3cnc(Nc4cc(C)nc(C)n4)cc32)cc1 [Compound I-74, methyl 4-(6-((2,6-dimethylpyrimidin-4-yl)amino)-3-oxo-2,3-dihydro-1H-pyrazolo[4,3-c]pyridin-1-yl)benzoate]
< 10	< 10	COC(=O)c1ccc(-n2[nH]c(=O)c3cnc(Nc4ccc(F)cn4)cc32)cc1 [Compound I-75, methyl 4-(6-((5-fluoropyridin-2-yl)amino)-3-oxo-2,3-dihydro-1H-pyrazolo[4,3-c]pyridin-1-yl)benzoate]
< 10	< 10	COc1cc(-n2[nH]c(=O)c3cnc(Nc4cc(C)nc(C)n4)cc32)ccc1F [Compound I-76, 6-((2,6-dimethylpyrimidin-4-yl)amino)-1-(4-fluoro-3-methoxyphenyl)-1,2-dihydro-3H-pyrazolo[4,3-c]pyridin-3-one]
< 10	< 10	COc1cc(-n2[nH]c(=O)c3cnc(Nc4ccc(F)cn4)cc32)ccc1F [Compound I-77, 1-(4-fluoro-3-methoxyphenyl)-6-((5-fluoropyridin-2-yl)amino)-1,2-dihydro-3H-pyrazolo[4,3-c]pyridin-3-one]
